# Measurements reported in patent publication US8497278B2, “Imidazo[1,2-a]pyridine compounds” (priority 2008, dated 2013).
# Tested on: central benzodiazepine receptors
# Test: Central benzodiazepine receptor binding (test of Speth et al.)
# Conditions: 1000 nM of the compound
# Description: Compounds of the invention were assessed for their binding to the benzodiazepine receptor by the test of Speth et al. [Life Sci. 24, 351 (1979)] for central benzodiazepine receptors and LeFur et al. [Life Sci. 33, 449 (1983)] for peripheral receptors. The compounds were tested first at 1.0E-09, 1.0E-07 and 1.0E-05 M in single determination. […] The specific ligand binding to the receptor is defined as the difference between the total binding and the nonspecific binding determined in the presence of an excess of unlabelled ligand. In each experiment, the respective reference compound was tested concurrently with the test compounds in order to assess the assay suitability. It was tested at several concentrations (for IC50 value determination), and the data were compared with historical values. The assay was rendered valid if suitability criteria were met.
# BZD central binding data for the compounds is provided in Table 3, wherein is provided the percent inhibition of central BZD in the presence of 1000 nM of the compound.
row,SMILES,% Inhibition at 1000 nM for CBZD
1,"Fc1ccc(-c2nc3ccc(Cl)cn3c2CNc2nc(F)cc(F)n2)cc1 [Compound 169, N-((6-Chloro-2-(4-fluorophenyl)imidazo[1,2-a]pyridin-3-yl)methyl)-4,6-difluoropyrimidin-2-amine]",++ (percentage of inhibition of central BZD site binding is greater than 80% in the presence of 1000 nM of the compound)
2,"Clc1ccc(-c2nc3ccccn3c2Cn2cnnn2)cc1 [Compound 41, 3-((1H-tetrazol-1-yl)methyl)-2-(4-chlorophenyl)imidazo[1,2-a]pyridine]",++ (percentage of inhibition of central BZD site binding is greater than 80% in the presence of 1000 nM of the compound)
3,"COC(=O)c1ncn(Cc2c(-c3ccccc3)nc3ccc(Cl)cn23)n1 [Compound 45, 1-(6-Chloro-2-phenyl-imidazo[1,2-a]pyridin-3-ylmethyl)-1H-[1,2,4]triazole-3-carboxylic acid methyl ester]",+ (percentage of inhibition of central BZD site binding is greater than 50% but less than 80% in the presence of 1000 nM of the compound)
4,"Fc1cc(F)nc(NCc2c(-c3ccccc3)nc3ccccn23)n1 [Compound 164, 4,6-difluoro-N-((2-phenylimidazo[1,2-a]pyridin-3-yl)methyl)pyrimidin-2-amine]",++ (percentage of inhibition of central BZD site binding is greater than 80% in the presence of 1000 nM of the compound)
5,"Fc1cc(F)nc(NCc2c(-c3ccc(Cl)cc3)nc3ccccn23)n1 [Compound 167, N-((2-(4-chlorophenyl)imidazo[1,2-a]pyridin-3-yl)methyl)-4,6-difluoropyrimidin-2-amine]",++ (percentage of inhibition of central BZD site binding is greater than 80% in the presence of 1000 nM of the compound)
6,"O=C1OCCN1Cc1c(-c2ccc(Cl)cc2)nc2ccc(Cl)cn12 [Compound 111, 3-((6-chloro-2-(4-chlorophenyl)H-imidazo[1,2-a]pyridin-3-yl)methyl)oxazolidin-2-one]",++ (percentage of inhibition of central BZD site binding is greater than 80% in the presence of 1000 nM of the compound)
7,"Cc1ccc(-c2nc3ccc(C)cn3c2CNc2ncncn2)cc1 [Compound 146, (6-Methyl-2-p-tolyl-imidazo[1,2-a]pyridin-3-ylmethyl)-[1,3,5]triazin-2-yl-amine]",++ (percentage of inhibition of central BZD site binding is greater than 80% in the presence of 1000 nM of the compound)
8,"CCOC(=O)c1nccn1Cc1c(-c2ccc(Cl)cc2)nc2ccccn12 [Compound 26, Ethyl 1-((2-(4-chlorophenyl)H-imidazo[1,2-a]pyridin-3-yl)methyl)-1H-imidazole-2-carboxylate]",++ (percentage of inhibition of central BZD site binding is greater than 80% in the presence of 1000 nM of the compound)
9,"Cc1ccc(-c2nc3ccc(C)cn3c2CSc2nc(C)cc(C)n2)cc1 [Compound 181, 3-((4,6-dimethylpyrimidin-2-ylthio)methyl)-6-methyl-2-p-tolylH-imidazo[1,2-a]pyridine]",++ (percentage of inhibition of central BZD site binding is greater than 80% in the presence of 1000 nM of the compound)
10,"COC(=O)c1ncn(Cc2c(-c3ccc(C)cc3)nc3ccc(C)cn23)n1 [Compound 11, 1-(6-Methyl-2-p-tolyl-imidazo[1,2-a]pyridin-3-ylmethyl)-1H-[1,2,4]triazole-3-carboxylic acid methyl ester]",++ (percentage of inhibition of central BZD site binding is greater than 80% in the presence of 1000 nM of the compound)
11,"Cc1ccc(-c2nc3ccc(C)cn3c2Cn2ccccc2=O)cc1 [Compound 96, 1-((6-methyl-2-p-tolyl-H-imidazo[1,2-a]pyridin-3-yl)methyl)pyridin-2(1H)-one]",++ (percentage of inhibition of central BZD site binding is greater than 80% in the presence of 1000 nM of the compound)
12,"Cc1ccc(-c2nc3ccc(C)cn3c2CN2CCCCC2=O)cc1 [Compound 95, 1-((6-methyl-2-p-tolyl-H-imidazo[1,2-a]pyridin-3-yl)methyl)piperidin-2-one]",++ (percentage of inhibition of central BZD site binding is greater than 80% in the presence of 1000 nM of the compound)
13,"CN(C)CCNc1ccn(Cc2c(-c3ccc(Cl)cc3)nc3ccccn23)c(=O)n1 [Compound 134, 1-((2-(4-chlorophenyl)imidazo[1,2-a]pyridin-3-yl)methyl)-4-(2-(dimethylamino)ethylamino)pyrimidin-2(1H)-one]",++ (percentage of inhibition of central BZD site binding is greater than 80% in the presence of 1000 nM of the compound)
14,"CCOC(=O)c1nccn1Cc1c(-c2ccc(C)cc2)nc2ccc(C)cn12 [Compound 12, 1-(6-Methyl-2-p-tolyl-imidazo[1,2-a]pyridin-3-ylmethyl)-1H-imidazole-2-carboxylic acid ethyl ester]",++ (percentage of inhibition of central BZD site binding is greater than 80% in the presence of 1000 nM of the compound)
15,"Cc1ccc(-c2nc3c(Cl)cc(Cl)cn3c2Cn2cccn2)cc1 [Compound 65, 3-((1H-pyrazol-1-yl)methyl)-6,8-dichloro-2-p-tolylimidazo[1,2-a]pyridine]",++ (percentage of inhibition of central BZD site binding is greater than 80% in the presence of 1000 nM of the compound)
16,"Cc1nc(Cc2c(-c3ccc(Cl)cc3)nc3ccccn23)no1 [Compound 202, 3-((2-(4-chlorophenyl)imidazo[1,2-a]pyridin-3-yl)methyl)-5-methyl-1,2,4-oxadiazole]",++ (percentage of inhibition of central BZD site binding is greater than 80% in the presence of 1000 nM of the compound)
17,"Cc1ccc(-c2nc3ccc(C)cn3c2Cn2cccc(C)c2=O)cc1 [Compound 97, 3-methyl-1-((6-methyl-2-p-tolylH-imidazo[1,2-a]pyridin-3-yl)methyl)pyridin-2(1H)-one]",++ (percentage of inhibition of central BZD site binding is greater than 80% in the presence of 1000 nM of the compound)
18,"COC(=O)c1cc2occc2n1Cc1c(-c2ccc(Cl)cc2)nc2ccccn12 [Compound 33, Methyl 4-((2-(4-chlorophenyl)imidazo[1,2-a]pyridin-3-yl)methyl)-4H-furo[3,2-b]pyrrole-5-carboxylate]",++ (percentage of inhibition of central BZD site binding is greater than 80% in the presence of 1000 nM of the compound)
19,"Cc1ccc(-c2nc3ccc(C)cn3c2COc2cccnc2)cc1 [Compound 175, 6-Methyl-3-(pyridin-3-yloxymethyl)-2-p-tolyl-imidazo[1,2-a]pyridine]",++ (percentage of inhibition of central BZD site binding is greater than 80% in the presence of 1000 nM of the compound)
20,"Cc1ccc(-c2nc3ccc(C)cn3c2Cn2ccnc2C(=O)N(C)C)cc1 [Compound 71, N,N-Dimethyl-1-((6-methyl-2-p-tolylH-imidazo[1,2-a]pyridin-3-yl)methyl)-1H-imidazole-2-carboxamide]",+ (percentage of inhibition of central BZD site binding is greater than 50% but less than 80% in the presence of 1000 nM of the compound)
